How the values were obtained:
[1] = tested on: mouse preadipocyte 3T3-L1; experiment: Adipocyte differentiation of 3T3-L1 preadipocytes (MDI induction, Oil Red O staining, absorbance at 510 nm); type: cell-based; settings: FIGS. 3 to 8; for differentiation of preadipocytes into adipocytes: 3T3-L1, MDI-induced, day 8, Oil Red O; for lipid accumulation of adipocytes: 3T3-L1, Oil Red O lipid contents
Description: The mouse preadipocyte 3T3-L1 was cultured at 37° C. in 10% BCS DMEM under a 5% CO2 condition.
3T3-L1 preadipocytes were seeded at a density of 5×10^4 cells/well into 24-well plates. After being grown to 100% confluency, the cells were incubated for an additional two days. Then, the preadipocytes were induced to differentiate into adipcytes in the presence of MDI (0.5 mM 3-isobutyl-1-methylxanthine (IBMX), 1 μM dexamethasone, 1 μg/ml insulin) in 10% FBS DMEM. After incubation for 48 hours in this medium, the cells were cultured for two days in 10% FBS DMEM containing 1 μg/ml insulin. Subsequently, the cells were cultured for four days in 10% FBS DMEM, with replacement of the medium with a fresh one every two days. During adipocyte differentiation, the cells were treated with predetermined concentrations of the samples. On day 8 at which differentiation was completed, observations were made of the differentiation of the cells. In this connection, the adipose differentiation was qualitatively analyzed with Oil Red 0 staining under an optical microscope and quantitatively analyzed by measuring absorbance at 510 nm.

PPARγ [2] = experiment: Expression of PPARγ at gene level, real-time PCR in differentiated 3T3-L1 cells; type: cell-based, mouse; settings: 3T3-L1 differentiated 8 days, GAPDH control, FIGS. 11 to 16
Description: (§1) During adipocyte differentiation, expression levels of PPARγ, C/EBRα and ADD1/SREBP1c are increased.
(§2) After being treated with predetermined concentrations of the samples (Red-dog A, Red-dog B and Compounds 1 & 2) in the same manner as in Experimental Example 1-2, the cells were induced to differentiate into adipocytes for 8 days. The expression levels of PPARγ, C/EBRα and ADD1/SREBP1c were analyzed using real-time PCR. The 3T3-L1 cells were washed twice with PBS after differentiation for 8 days and the cell pellets were used for RNA isolation using an RNA prep kit (Qiagen). cDNA was synthesized from 1 μg of the isolated RNA before real-time PCR using SYBR green (Takara) and the primers given in Table 1, below. As a control gene, GAPDH was used. In this regard, the cDNA synthesized from 1 μg of RNA was diluted 1/50 to a volume of 5 μL and mixed with 0.5 μL of each of 10 pmole primer, 10 μL of 2XSYBR green, and […] of distilled water to give a PCR mix with a total volume of 20 μL. Real-time PCR started with denaturation at 95° C. for 30 sec, followed by 40 thermal cycles of denaturation at 95° C. for 5 sec, annealing for 60° C. for 15 sec and extension at 72° C. for 10 sec. The melt curve consisted of 80 melt cycles, starting at 55° C. to 95° C. with increments of 0.5° C. per cycle. Desired fluorescent signals were detected (data analysis was done with Bio-Rad MyiQ program).

C/EBRα [3] = experiment: Expression of C/EBRα at protein level, SDS-PAGE and immunoblot in 3T3-L1 cells; type: cell-based, mouse; settings: 3T3-L1, compared with β-actin; FIGS. 17 and 18
Description: (§3) After the 313-L1 cells were treated with the samples (Red-dog A & Red-dog B, Compounds 1 & 2) at regular intervals of two days in the same manner as in the adipocyte differentiation method, they were washed twice with PBS and lyzed in RIPA buffer (50 mM Tris-HCl, pH 8.0, 150 mM sodium chloride, 1% NP-40, 0.5% sodium dexycholate, 0.1% sodium dodecyl sulfate, protease inhibitor). Proteins harvested by centrifugation at 13,000 rpm for 30 min were separated on 8% SDS-PAGE gel and then transferred onto a membrane. The membrane was blocked with TBST containing 5% skim milk and reacted with a primary antibody (PPARγ, C/EBPα) (Santa Cruz) and then with a secondary antibody (Santa Cruz), followed by color development with an ECL reagent (Thermo scientific) to compare the expression level of PPARγ and C/EBPα with that of β-actin.

PPARγ [4] = experiment: Expression of PPARγ at protein level, SDS-PAGE and immunoblot in 3T3-L1 cells; type: cell-based, mouse; settings: 3T3-L1, compared with β-actin; FIGS. 17 and 18
Description: as §3

C/EBRα [5] = experiment: Expression of C/EBRα at gene level, real-time PCR in differentiated 3T3-L1 cells; type: cell-based, mouse; settings: 3T3-L1 differentiated 8 days, GAPDH control, FIGS. 11 to 16
Description: as §1, §2

Fas = experiment: Anti-insulin resistance assay: Fas expression at gene level in differentiated 3T3-L1 cells; type: cell-based, mouse; settings: cells differentiated for 8 days, FIGS. 19 to 24
Description: (§4) To examine whether the samples (Red-dog A & Red-dog B, compounds 1 & 2) are effective as anti-insulin resistance agents, expression levels of resistin, aP2 and Fas in the cells that had been differentiated for 8 days as in Experimental Example 1 were analyzed using the primers of Table 2, below.

resistin = experiment: Anti-insulin resistance assay: resistin expression at gene level in differentiated 3T3-L1 cells; type: cell-based, mouse; settings: cells differentiated for 8 days, FIGS. 19 to 24
Description: as §4

ADD1/SREBP1c = experiment: Expression of ADD1/SREBP1c at gene level, real-time PCR in differentiated 3T3-L1 cells; type: cell-based, mouse; settings: 3T3-L1 differentiated 8 days, GAPDH control, FIGS. 11 to 16
Description: as §1, §2

PPARγ [6] = biological target: T1, PPARγ (Homo sapiens, UniProt P37231); experiment: PPARγ transcriptional activity, PPRE luciferase reporter in HEK 293T cells; type: cell-based; settings: 24 hours, alone or with 10 μM troglitazone, FIGS. 9 and 10
T1 construct: expressed in transfected cells; host or cells: HEK 293T
T1 sequence (P37231 1-505): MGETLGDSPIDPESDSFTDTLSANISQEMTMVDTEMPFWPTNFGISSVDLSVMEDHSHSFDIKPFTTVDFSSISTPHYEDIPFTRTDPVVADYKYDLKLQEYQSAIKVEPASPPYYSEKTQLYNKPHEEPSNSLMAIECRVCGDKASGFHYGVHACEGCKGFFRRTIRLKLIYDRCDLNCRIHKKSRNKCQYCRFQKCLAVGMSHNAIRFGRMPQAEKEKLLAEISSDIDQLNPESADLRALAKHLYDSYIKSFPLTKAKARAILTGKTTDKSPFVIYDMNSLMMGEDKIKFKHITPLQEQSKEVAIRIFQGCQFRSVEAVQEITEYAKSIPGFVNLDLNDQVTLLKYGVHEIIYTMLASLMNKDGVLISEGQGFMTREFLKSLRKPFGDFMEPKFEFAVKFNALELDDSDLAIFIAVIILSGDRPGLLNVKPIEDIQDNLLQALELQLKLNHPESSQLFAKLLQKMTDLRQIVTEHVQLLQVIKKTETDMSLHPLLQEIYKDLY
Description: HEK 293T cells were co-transfected with a recombinant pGL3-basic luciferase expression vector (Promega) carrying a PPRE (PPARγ response element) gene and a PPARγ gene and a pRL-SV-40 plasmid (Promega) carrying a Renilla luciferase cDNA as a control reporter. One day after transfection, the cells were treated for 24 hours with predetermined concentrations of the samples (Red-dog A, Red-dog B and Compounds 1 & 2) alone or in combination with 10 μM troglitazone, a ligand to PPARγ. The inhibitory activity of the samples against the transcription factor PPARγ was determined by measuring the expression levels of luciferase.

aP2 = experiment: Anti-insulin resistance assay: aP2 expression at gene level in differentiated 3T3-L1 cells; type: cell-based, mouse; settings: cells differentiated for 8 days, FIGS. 19 to 24
Description: as §4

CCCCCC(O)C(O)/C=C/C(O)CCCCCCCC(=O)O (stereo not shown) [Compound 2, 9,12,13-trihydroxy-10(E)-octadecenoic acid]
differentiation of preadipocytes into adipocytes [1]: inhibited the differentiation of preadipocytes into adipocytes in dose-dependent manners
lipid accumulation of adipocytes [1]: inhibitory activities
expression of PPARγ at the genetic level (PPARγ [2]): inhibit the expression of PPARγ, C/EBRα and ADD1/SREBP1c in dose-dependent manners
expression of C/EBRα at protein level (C/EBRα [3]): inhibited the expression of PPARγ and C/EBRα in dose-dependent manners
expression of PPARγ at protein level (PPARγ [4]): inhibited the expression of PPARγ and C/EBRα in dose-dependent manners
expression of C/EBRα at the genetic level (C/EBRα [5]): inhibit the expression of PPARγ, C/EBRα and ADD1/SREBP1c in dose-dependent manners
expression of Fas at the genetic level (Fas): inhibit the expression of resistin, aP2 and Fas in dose-dependent manners
expression of Fas at the genetic level (Fas; listed as Chemical Formula 2): significantly suppressed
expression of resistin at the genetic level (resistin): inhibit the expression of resistin, aP2 and Fas in dose-dependent manners
expression of resistin at the genetic level (resistin; listed as Chemical Formula 2): significantly suppressed
expression of ADD1/SREBP1c at the genetic level (ADD1/SREBP1c): inhibit the expression of PPARγ, C/EBRα and ADD1/SREBP1c in dose-dependent manners
transcriptional activity of PPARγ (PPARγ [6]): inhibited the transcriptional activity of PPARγ in a dose-dependent manner
expression of aP2 at the genetic level (aP2): inhibit the expression of resistin, aP2 and Fas in dose-dependent manners
expression of aP2 at the genetic level (aP2; listed as Chemical Formula 2): significantly suppressed

COc1cc(OC2OC(CO)[C@@H](O)[C@H](O)[C@@H]2O)ccc1O (stereo partly drawn) [Compound 1, methoxy-hydroquinone-4-β-D-glucopyranoside]
differentiation of preadipocytes into adipocytes [1]: inhibited the differentiation of preadipocytes into adipocytes in dose-dependent manners
lipid accumulation of adipocytes [1]: inhibitory activities
expression of PPARγ at the genetic level (PPARγ [2]): inhibit the expression of PPARγ, C/EBRα and ADD1/SREBP1c in dose-dependent manners
expression of C/EBRα at protein level (C/EBRα [3]): inhibited the expression of PPARγ and C/EBRα in dose-dependent manners
expression of PPARγ at protein level (PPARγ [4]): inhibited the expression of PPARγ and C/EBRα in dose-dependent manners
expression of C/EBRα at the genetic level (C/EBRα [5]): inhibit the expression of PPARγ, C/EBRα and ADD1/SREBP1c in dose-dependent manners
expression of Fas at the genetic level (Fas): inhibit the expression of resistin, aP2 and Fas in dose-dependent manners
expression of Fas at the genetic level (Fas; listed as Chemical Formula 1): significantly suppressed
expression of resistin at the genetic level (resistin): inhibit the expression of resistin, aP2 and Fas in dose-dependent manners
expression of resistin at the genetic level (resistin; listed as Chemical Formula 1): significantly suppressed
expression of ADD1/SREBP1c at the genetic level (ADD1/SREBP1c): inhibit the expression of PPARγ, C/EBRα and ADD1/SREBP1c in dose-dependent manners
transcriptional activity of PPARγ (PPARγ [6]): inhibited the transcriptional activity of PPARγ in a dose-dependent manner
expression of aP2 at the genetic level (aP2): inhibit the expression of resistin, aP2 and Fas in dose-dependent manners
expression of aP2 at the genetic level (aP2; listed as Chemical Formula 1): significantly suppressed

Reference: patent publication US20130102554A1, “COMPOSITION FOR TREATMENT OF OBESITY USING WHEAT BRAN EXTRACT OR ACTIVE INGREDIENT ISOLATED THEREFROM” (priority 2009, published 2013)
